This note sets out measurements from patent US9956204B2, “Composition for exterminating scuticociliates in fish including mebendazole” (NATIONAL INSTITUTE OF FISHERIES SCIENCE, priority 2016, dated 2018).

The subject of assay [1] is scuticociliates. Put plainly: Scuticociliates extermination effect of candidate substances in seawater medium. The format is cell-based. How it is done:
For this, scuticociliates were cultured in CHSE-214 cell line (using MEM medium), and then scuticociliates were collected and centrifuged with sterilized seawater or artificial seawater (20‰) to replace them with a seawater medium. Each of 100 μl (1×10^5) was dispensed into each well of 96 wells, followed by further culture for 30 minutes. The candidate substances diluted in seawater to have a volume of 100 μl per each concentration were mixed with scuticociliates to have the final volume of 200 μl and cultured for 4 hour.

The test system of assay [2] is scuticociliates. The experiment in a line: Scuticociliates extermination effect of candidate substances in MEM medium. The format is cell-based. The procedure:
CHSE-214 cell line into which scuticociliates were inoculated was cultured in advance. The CHSE-214 cell line was cultured in an incubator using an MEM medium at 22° C. Scuticociliates inoculated into the cell line proliferated for 3 days by which the number reaches to be capable of analyzing in vitro anti-scuticociliates effect. Scuticociliates that feed on the cell line and sufficiently grow were mixed with the candidate substance and the activity of scuticociliates was measured.
In order to analyze the antiparasitic activity of the above 19 types of candidate substances of scuticociliates extermination drugs, scuticociliates were cultured for 3 days, and 100 μl (1×10^5) was dispensed into each well of 96 wells. The candidate substances were diluted by each concentration and the final volume was dispensed into 100 μl. Thereafter, the two were mixed and finally made into 200 μl.

[3] abbreviates: seawater medium, 4 hour, Dosage 500 ppm.
[4] abbreviates: seawater medium, 4 hour, Dosage 1000 ppm.
Where [5] appears, read: seawater medium, 4 hour, Dosage 1500 ppm.
[6] abbreviates: seawater medium, 4 hour, Dosage 2000 ppm.
The mark [7] stands for this setting: seawater medium, 4 hour, Dosage 2500 ppm.
The mark [8] stands for this setting: seawater medium, 4 hour, Dosage 3000 ppm.
Where [9] appears, read: seawater medium, 4 hour, Dosage 3500 ppm.
Setting [10] is: seawater medium, 4 hour, Dosage 4000 ppm.

SMILES strings stand for the structures.

On to `CO[C@H]1C[C@H](O[C@@H]2/C(C)=C/C[C@@H]3C[C@@H](C[C@]4(CC[C@H](C)[C@@H](C5CCCCC5)O4)O3)OC(=O)[C@@H]3C=C(C)/C(=N/O)[C@H]4OC/C(=C\C=C\[C@@H]2C)[C@]43O)O[C@@H](C)[C@@H]1O` [Selamectin], for which the “Survival or Death of scuticociliates (activity and shape, microscope)” value (“Survival or Death of scuticociliates” below) with scuticociliates [1] is “Survival and Δ and Death”; in the assay with scuticociliates [2], “Survival and Δ and Death”.

As for `COC(=O)Nc1nc2ccc([S+]([O-])c3ccccc3)cc2[nH]1` (centres unmarked) [Oxfendazole], the “Survival or Death of scuticociliates” value in the assay on scuticociliates [1] (seawater medium, 4 hour, Dosage 10 ppm) is given as “Survival”; with scuticociliates [1] (seawater medium, 4 hour, Dosage 50 ppm) it was “Survival”; in the assay on scuticociliates [1] (seawater medium, 4 hour, Dosage 100 ppm), “Survival”; with scuticociliates [1] (seawater medium, 4 hour, Dosage 200 ppm), “Survival”; with scuticociliates [1] (seawater medium, 4 hour, Dosage 300 ppm) it was “Survival”; in the assay on scuticociliates [1] (seawater medium, 4 hour, Dosage 400 ppm), “Survival”. For the same compound, the “Survival or Death of scuticociliates” value in the assay with scuticociliates [1] (setting [3]) is “Survival”; in the assay on scuticociliates [1] (seawater medium, 4 hour, Dosage 600 ppm), “Survival”; in the assay on scuticociliates [1] (seawater medium, 4 hour, Dosage 700 ppm), “Δ”; with scuticociliates [1] (seawater medium, 4 hour, Dosage 800 ppm) it was “Δ”; with scuticociliates [1] (seawater medium, 4 hour, Dosage 900 ppm) it was “Δ”; with scuticociliates [1] (setting [4]), “Death”. Moreover, the “Survival or Death of scuticociliates” value in the assay with scuticociliates [2] (MEM medium, Dosage 10 ppm) is “Survival”; with scuticociliates [2] (MEM medium, Dosage 50 ppm), “Survival”; in the assay with scuticociliates [2] (MEM medium, Dosage 100 ppm) it was “Survival”; in the assay on scuticociliates [2] (MEM medium, Dosage 200 ppm) it was “Survival”; in the assay with scuticociliates [2] (MEM medium, Dosage 300 ppm) it was “Survival”; with scuticociliates [2] (MEM medium, Dosage 400 ppm) it was “Survival”. Besides, the “Survival or Death of scuticociliates” value in the assay with scuticociliates [2] (MEM medium, Dosage 500 ppm) is recorded as “Survival”; with scuticociliates [2] (MEM medium, Dosage 600 ppm), “Survival”; with scuticociliates [2] (MEM medium, Dosage 700 ppm), “Δ”; with scuticociliates [2] (MEM medium, Dosage 800 ppm) it was “Δ”; in the assay with scuticociliates [2] (MEM medium, Dosage 900 ppm), “Δ”; in the assay with scuticociliates [2] (MEM medium, Dosage 1000 ppm) it was “Death”.

Turning to `c1ccc(C2CN3CCSC3=N2)cc1` (centres unmarked) [Tetramisole], the “Survival or Death of scuticociliates” value in the assay on scuticociliates [1] (setting [3]), in the assay with scuticociliates [1] (setting [4]), in the assay with scuticociliates [1] (setting [5]), in the assay on scuticociliates [1] (setting [6]), in the assay on scuticociliates [1] (setting [7]) and in the assay on scuticociliates [1] (setting [8]) was “Survival” in each case. In addition, the “Survival or Death of scuticociliates” value was “Survival” with scuticociliates [1] (setting [9]); “Survival” with scuticociliates [1] (setting [10]); “Survival” in the assay with scuticociliates [2] (MEM medium, Dosage 500 ppm); “Survival” in the assay with scuticociliates [2] (MEM medium, Dosage 1000 ppm); “Survival” with scuticociliates [2] (MEM medium, Dosage 1500 ppm); “Survival” with scuticociliates [2] (MEM medium, Dosage 2000 ppm). Further, the “Survival or Death of scuticociliates” value is “Survival” in the assay with scuticociliates [2] (MEM medium, Dosage 2500 ppm); “Survival” in the assay on scuticociliates [2] (MEM medium, Dosage 3000 ppm); “Survival” in the assay on scuticociliates [2] (MEM medium, Dosage 3500 ppm); “Survival” with scuticociliates [2] (MEM medium, Dosage 4000 ppm).

As to `C1CNCCN1` [Piperazine], the “Survival or Death of scuticociliates” value in the assay with scuticociliates [1] (setting [3]), in the assay with scuticociliates [1] (setting [4]), in the assay with scuticociliates [1] (setting [5]), in the assay on scuticociliates [1] (setting [6]), in the assay on scuticociliates [1] (setting [7]) and in the assay with scuticociliates [1] (setting [8]) was “Survival” throughout. In addition, the “Survival or Death of scuticociliates” value is reported as “Survival” in the assay on scuticociliates [1] (setting [9]); “Survival” in the assay on scuticociliates [1] (setting [10]); “Survival” with scuticociliates [2] (MEM medium, Dosage 500 ppm); “Survival” with scuticociliates [2] (MEM medium, Dosage 1000 ppm); “Survival” with scuticociliates [2] (MEM medium, Dosage 1500 ppm); “Survival” in the assay on scuticociliates [2] (MEM medium, Dosage 2000 ppm). For the same compound, the “Survival or Death of scuticociliates” value is listed as “Survival” in the assay with scuticociliates [2] (MEM medium, Dosage 2500 ppm); “Survival” with scuticociliates [2] (MEM medium, Dosage 3000 ppm); “Survival” in the assay with scuticociliates [2] (MEM medium, Dosage 3500 ppm); “Survival” with scuticociliates [2] (MEM medium, Dosage 4000 ppm).

As for `CN1CCCN=C1/C=C/c1cccs1` [Pyrantel], the “Survival or Death of scuticociliates” value in the assay on scuticociliates [1] (setting [3]), with scuticociliates [1] (setting [4]), in the assay on scuticociliates [1] (setting [5]), with scuticociliates [1] (setting [6]), with scuticociliates [1] (setting [7]) and in the assay on scuticociliates [1] (setting [8]) was “Survival” throughout. Further, the “Survival or Death of scuticociliates” value with scuticociliates [1] (setting [9]) is on record as “Survival”; in the assay on scuticociliates [1] (setting [10]), “Survival”; with scuticociliates [2] (MEM medium, Dosage 500 ppm), “Survival”; in the assay on scuticociliates [2] (MEM medium, Dosage 1000 ppm), “Survival”; in the assay with scuticociliates [2] (MEM medium, Dosage 1500 ppm), “Survival”; in the assay on scuticociliates [2] (MEM medium, Dosage 2000 ppm), “Survival”. Moreover, the “Survival or Death of scuticociliates” value in the assay with scuticociliates [2] (MEM medium, Dosage 2500 ppm) is listed as “Survival”; in the assay with scuticociliates [2] (MEM medium, Dosage 3000 ppm), “Survival”; in the assay with scuticociliates [2] (MEM medium, Dosage 3500 ppm), “Survival”; in the assay with scuticociliates [2] (MEM medium, Dosage 4000 ppm) it was “Survival”.

For the compound `CC[C@H](C)[C@H]1O[C@]2(CC[C@@H]1C)C[C@@H]1C[C@@H](C/C=C(\C)[C@@H](O[C@H]3C[C@H](OC)[C@@H](O[C@H]4C[C@H](OC)[C@@H](O)[C@H](C)O4)[C@H](C)O3)[C@@H](C)/C=C/C=C3\CO[C@@H]4[C@H](O)C(C)=C[C@@H](C(=O)O1)[C@]34O)O2` [Ivermectin], the “Survival or Death of scuticociliates” value in the assay on scuticociliates [1] (setting [3]), in the assay on scuticociliates [1] (setting [4]), with scuticociliates [1] (setting [5]), in the assay on scuticociliates [1] (setting [6]), in the assay on scuticociliates [1] (setting [7]) and in the assay with scuticociliates [1] (setting [8]) was “Survival” throughout. The “Survival or Death of scuticociliates” value with scuticociliates [1] (setting [9]) was “Survival”; in the assay on scuticociliates [1] (setting [10]) it was “Survival”; in the assay on scuticociliates [2] (MEM medium, Dosage 500 ppm) it was “Survival”; with scuticociliates [2] (MEM medium, Dosage 1000 ppm), “Survival”; in the assay with scuticociliates [2] (MEM medium, Dosage 1500 ppm) it was “Survival”; in the assay on scuticociliates [2] (MEM medium, Dosage 2000 ppm), “Survival”. For the same compound, the “Survival or Death of scuticociliates” value in the assay with scuticociliates [2] (MEM medium, Dosage 2500 ppm) was “Survival”; in the assay on scuticociliates [2] (MEM medium, Dosage 3000 ppm) it was “Survival”; with scuticociliates [2] (MEM medium, Dosage 3500 ppm) it was “Survival”; with scuticociliates [2] (MEM medium, Dosage 4000 ppm), “Survival”.

On to `CC1(C)[C@H](C(=O)O[C@H](C#N)c2cccc(Oc3ccccc3)c2)[C@@H]1C=C(Br)Br` [Deltamethrin], for which the “Survival or Death of scuticociliates” value with scuticociliates [1] (seawater medium, 4 hour, Dosage 250 ppm) is listed as “Survival”; in the assay on scuticociliates [1] (setting [3]) it was “Survival”; with scuticociliates [1] (setting [4]), “Survival”; in the assay with scuticociliates [1] (seawater medium, 4 hour, Dosage 1200 ppm), “Death”; with scuticociliates [1] (seawater medium, 4 hour, Dosage 1400 ppm) it was “Death”; in the assay with scuticociliates [1] (setting [5]), “Death”. In addition, the “Survival or Death of scuticociliates” value is listed as “Survival” in the assay with scuticociliates [2] (MEM medium, Dosage 500 ppm); “Survival” in the assay with scuticociliates [2] (MEM medium, Dosage 600 ppm); “Survival” in the assay with scuticociliates [2] (MEM medium, Dosage 700 ppm); “Survival” in the assay on scuticociliates [2] (MEM medium, Dosage 800 ppm); “Survival” in the assay on scuticociliates [2] (MEM medium, Dosage 900 ppm); “Δ” with scuticociliates [2] (MEM medium, Dosage 1000 ppm). Moreover, the “Survival or Death of scuticociliates” value in the assay on scuticociliates [2] (MEM medium, Dosage 2000 ppm) was “Death”; with scuticociliates [2] (MEM medium, Dosage 5000 ppm), “Death”.
